Entries after “also recorded” stand apart in the source; their conditions may differ.
How the values were obtained:
SST14 = assay: SST14-dependent ThT incorporation in presence of Aβ1-42; type: biochemical, human
From the text: Figure 4. […] (A) Workflow of ThT-based aggregation assay. (B) Representative ThT fluorescence charts using synthetic Aβ1-42 alone or in combination with SST14 or negative control AVP peptides. […] Please see legend for experimental conditions. DOI: http://dx.doi.org/10.7554/eLife.28401.008 Figure 4—figure supplement 1. […] (A) Workflow of ThT-based aggregation assay. […] (B) Representative ThT fluorescence charts monitoring SST14-dependent ThT incorporation. […] DOI: http://dx.doi.org/10.7554/eLife.28401.009 [drawing 1] Figure 4—figure supplement 2. […] (A) Workflow of amylin-dependent ThT fluorecence assay in the presence or absence of SST14. (B) Representative ThT fluorescence charts monitoring amylin-dependent ThT incorporation. […] DOI: http://dx.doi.org/10.7554/eLife.28401.010 [drawing 2]
Assay procedures were largely based on a protocol described by Sarah Linse’s group ([Hellstrand et al., 2010]). […] The subsequent plate incubation proceeded at 37°C with shaking at 700 rpm for 4 of every 5 min in a microplate reader (CLARIOstar, BMG Labtech, Guelph, ON, Canada) for overall durations specified in individual figures. ThT fluorescence was measured every 5 min at excitation and emission wavelengths of 444 nm and 485 nm, respectively.

Aβ1-42 [1] = target: T1, Aβ1-42 (Homo sapiens, UniProt P05067); assay: Western blot / silver stain detection of Aβ1-42 after incubation with SST14 or CST17; type: biochemical; conditions: 18 hr incubation, 6E10 Western blot, Aβ1-42 alone or with SST14 or CST17
T1 construct: purchased Anaspec, Inc. (Fremont, CA, USA) AS-24224; host or cells: synthetic peptide
T1 sequence (P05067 672-713 limits assumed): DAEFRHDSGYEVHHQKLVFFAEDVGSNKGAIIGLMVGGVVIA
Description: Initially, we were interested in observing the influence of incubation time on sample composition (Figure 5B).

Aβ1-42 [2] = target: T1, Aβ1-42; assay: Negative stain electron microscopy of Aβ1-42 assemblies; type: biochemical; conditions: 50 μM Aβ1-42 in PBS, with or without equimolar SST
[3] = system: tau phosphorylated at pSer202/pThr205 (AT8) and pThr231 (AT180) in primary hippocampal neurons; assay: Primary hippocampal neuron tau phosphorylation assay (Western blot)
Aβ = conditions: ref Maftei et al., 2012; cited from earlier work
From the text: Although initially captured at pH 8.0, a widely-used pH for interactome analyses, owed to its wide-spread use in radioimmunoprecipitation assay (RIPA) buffer formulations, the oAβ-SST14 interaction was in subsequent validation ...

Substance | delay of SST14-dependent ThT incorporation by monomeric Aβ1-42 (SST14; 1 μM monomeric Aβ1-42, 250 μM SST14) | delay of SST14-dependent ThT incorporation by oligomeric Aβ1-42 (SST14; 1 μM pre-aggregated Aβ1-42, 250 μM SST14) | apparent molecular weight of HMM 6E10 signals (Aβ1-42 [1]) | assemblies observed by negative stain electron microscopy (Aβ1-42 [2]) | tau hyperphosphorylation by monomeric Aβ1-42 ([3]; monomeric Aβ1-42 (0 hr) alone, 24 hr exposure) | tau hyperphosphorylation by oligomeric Aβ1-42 ([3]; pre-aggregated (24 hr) Aβ1-42, 24 hr exposure, day 18 cultures, AT8 and AT180, listed as oAβ1-42) | Aβ binding epitope (Aβ)
amyloid β peptide 1-42 [Aβ1-42] | Oligomeric, but not monomeric, Aβ1-42 interferes with SST14-dependent ThT incorporation | reliably delayed SST14-dependent ThT incorporation by several hours; also recorded: profound delay in SST14 aggregation-dependent ThT incorporation | 55-200 kDa | characteristic amyloid fibrils | not observed when monomeric Aβ1-42 was added to the cell culture medium alone | robust tau hyperphosphorylation was observed | –
humanin: 21-24 amino acid peptide coded within the mitochondrial 16S ribosomal RNA gene | – | – | – | – | – | – | interacts with an Aβ binding epitope encompassing residues 17-28

Reference: publication PMC5505701, “Somatostatin binds to the human amyloid β peptide and favors the formation of distinct oligomers” (eLife, 2017)
